According to patent publication US6548546B2, “HIV integrase inhibitors” (Bristol-Myers Squibb Company, priority 2000, dated 2003):

Target: T1, Purified recombinant HIV-1 integrase (Human immunodeficiency virus type 1 group M subtype B, UniProt P04585)
T1 construct: Purified recombinant HIV-1 integrase
Test: in vitro HIV-1 integrase integration (strand transfer) assay
Assay type: biochemical
Conditions: compound at 70 μM; immobilized precleaved substrate DNA, biotinylated target DNA, 1 hour at 37° C.
Method: The in vitro activities, against integrase, of compounds of the present invention, were measured in a manner which was similar to previously disclosed methods (cf. Hazuda, D. J.; Felock, P.; Witmer, M.; Wolfe, A.; Stillmock, K.; Grobler, J. A.; Espeseth, A.; Gabryelski, L.; Schleif, W.; Blau, C.; Miller, M. D. Science, 2000, 287, 646) Purified recombinant HIV-1 integrase was incubated with immobilized precleaved substrate DNA in a 96 well plate for 20 min at 37° C. After the integration complex was formed, compounds at desired concentrations were added to the wells followed by a 10 min incubation at 37° C. Biotinyted Target DNA was then added and the reaction was carried out for an additional 1 hour at 37° C. Wells were then washed thoroughly to remove any free DNA and integration activity was measured by using a commercial kit to quantitate the amount of biotinyted target DNA integrated into the substrate.

## O=C(/C=C(\O)C(=O)O)CCc1ccccc1Cl [Compound 1, 6-(2-chloro-phenyl)-2-hydroxy-4-oxo-hex-2-enoic Acid]
  inhibition at 70 µM: 70%

## O=C(/C=C(\O)C(=O)O)CCc1ccccc1Br [Compound 2, 6-(2-Bromo-phenyl)-2-hydroxy-4-oxo-hex-2-enoic Acid]
  inhibition at 70 µM: 90%

## O=C(/C=C(\O)C(=O)O)CCc1ccccc1 [Compound 3, 2-Hydroxy-4-oxo-phenyl-hex-2-enoic Acid]
  inhibition at 70 µM: 60%

## O=C(/C=C(\O)C(=O)O)CC(=O)c1ccccc1OCc1ccccc1 [Compound 4, 6-(2-Benzyloxy-phenyl)-2-hydroxy-4,6,-dioxo-hex-2-enoic Acid]
  inhibition at 70 µM: 97%

## O=C(/C=C(\O)C(=O)O)CC(=O)c1ccccc1C(F)(F)F [Compound 5, 2-Hydroxy-4,6-dioxo-6-(2-trifluoromethyl-phenyl)-hex-2-enoic Acid]
  inhibition at 70 µM: 90%

## COc1ccccc1C(=O)CC(=O)/C=C(\O)C(=O)O [Compound 6, 2-Hydroxy-6-(2-methoxy-phenyl)-4,6-dioxo-hex-2-enoic Acid]
  inhibition at 70 µM: 90%

## O=C(/C=C(\O)C(=O)O)CC(=O)c1ccc2ccccc2c1 [Compound 7, 2-Hydroxy-6-naphthalen-2-yl-4,6-dioxo-hex-2-enoic Acid]
  inhibition at 70 µM: 95%

## O=C(/C=C(\O)C(=O)O)CC(=O)c1ccc(Cl)cc1Cl [Compound 8, 6-(2,4,-Dichloro-phenyl)-2-hydroxy-4,6-dioxo-hex-2-enoic Acid]
  inhibition at 70 µM: 95%

## O=C(/C=C(\O)C(=O)O)CC(=O)c1ccc(-c2ccccc2)cc1 [Compound 9, 6-Biphenyl-4-yl-2-hydroxy-4,6-dioxo-hex-2-enoic Acid]
  inhibition at 70 µM: 99%

## O=C(/C=C(\O)C(=O)O)CC(=O)c1cccc(Cl)c1 [Compound 10, 6-(3-Chloro-phenyl)-2-hydroxy-4,6-dioxo-hex-2-enoic Acid]
  inhibition at 70 µM: 88%

## O=C(/C=C(\O)C(=O)O)CC(=O)c1ccccc1F [Compound 11, 6-(2-Fluoro-phenyl)-2-hydroxy-4,6,-dioxo-hex-2-enoic Acid]
  inhibition at 70 µM: 86%

## O=C(/C=C(\O)C(=O)O)CC(=O)c1cc(Cl)ccc1Cl [Compound 12, 6-(2,5-Dichloro-phenyl)2-hydroxy-4,6-dioxo-hex-2-enoic Acid]
  inhibition at 70 µM: 98%

## O=C(/C=C(\O)C(=O)O)CC(=O)c1ccccc1 [Compound 13, 2-Hydroxy-4,6-dioxo-6-phenyl-hex-2-enoic Acid]
  inhibition at 70 µM: 50%
